Measured values taken from the supplement of paper PMC11061612.

What was measured:
Assay in all cases: combination Emax (second highest fraction inhibited in the dose matrix, 72 h); higher = more inhibition; extreme values may be limits of the assay
[1] = system: VCaP (Prostate Carcinoma)
Summary of the method: (§1)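 After 24 hours at 37°C and 5% CO2 in 1536-well plates, cells in DMEM/F12 or RPMI plus 10% FBS received two-drug dose matrices for 72 hours. Viability came from CellTiter-Glo 2.0 luminescence and was scaled as inhibition, anchored at 0 by vehicle wells and at 1 by blank wells. Combination Emax is taken as the second-highest inhibition in the matrix, and Bliss excess as the observed combination effect less EA + EB − EA·EB, with EA and EB the single-agent effects.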

IGR-37 (Melanoma) = system: IGR-37 (Melanoma)
Summary of the method: as §1

[2] = system: ONS-76 (Other Solid Carcinomas)
Summary of the method: as §1

[3] = system: TT (Thyroid Gland Carcinoma)
Summary of the method: as §1

[4] = system: A3-KAW (B-Cell Non-Hodgkin's Lymphoma)
Summary of the method: as §1

[5] = system: PANC-10-05 (Pancreatic Carcinoma)
Summary of the method: as §1

[6] = system: CCK-81 (Colorectal Carcinoma)
Summary of the method: as §1

[7] = system: ECC10 (Gastric Carcinoma)
Summary of the method: as §1

[8] = system: SK-MES-1 (Squamous Cell Lung Carcinoma)
Summary of the method: as §1

[9] = system: A549 (Lung Adenocarcinoma)
Summary of the method: as §1

[10] = system: OS-RC-2 (Kidney Carcinoma)
Summary of the method: as §1

Hs-445 (Non-Cancerous) = system: Hs-445 (Non-Cancerous)
Summary of the method: as §1

FU97 (Gastric Carcinoma) = system: FU97 (Gastric Carcinoma)
Summary of the method: as §1

NCI-H2591 (Mesothelioma) = system: NCI-H2591 (Mesothelioma)
Summary of the method: as §1

[11] = system: NCI-H1666 (Lung Adenocarcinoma)
Summary of the method: as §1

[12] = system: SK-MG-1 (Low Grade Glioma)
Summary of the method: as §1

U-2-OS (Osteosarcoma) = system: U-2-OS (Osteosarcoma)
Summary of the method: as §1

[13] = system: HCC1954 (Breast Carcinoma)
Summary of the method: as §1

[14] = system: CAL-29 (Bladder Carcinoma)
Summary of the method: as §1

[15] = system: MDST8 (Colorectal Carcinoma)
Summary of the method: as §1

| Compound | combination Emax [1] | combination Emax (IGR-37 (Melanoma)) | combination Emax [2] | combination Emax [3] | combination Emax [4] | combination Emax [5] | combination Emax [6] | combination Emax [7] | combination Emax [8] | combination Emax [9] | combination Emax [10] | combination Emax (Hs-445 (Non-Cancerous)) | combination Emax (FU97 (Gastric Carcinoma)) | combination Emax (NCI-H2591 (Mesothelioma)) | combination Emax [11] | combination Emax [12] | combination Emax (U-2-OS (Osteosarcoma)) | combination Emax [13] | combination Emax [14] | combination Emax [15] |
| --- | --- | --- | --- | --- | --- | --- | --- | --- | --- | --- | --- | --- | --- | --- | --- | --- | --- | --- | --- | --- |
| COc1nnc2ccc(N3CCC(c4ccc(OCCN5CCN(C)C(=O)[C@H]5C)cc4)CC3)nn12 [AZD5153] + C=CCn1c(=O)c2cnc(Nc3ccc(N4CCN(C)CC4)cc3)nc2n1-c1cccc(C(C)(C)O)n1 [AZD1775] (first compound max 1 µM, partner max 1 µM) | 0.767 | 0.775 | 0.601 | 0.563 | 1 | 0.597 | 0.869 | 0.901 | 0.743 | 0.885 | 0.486 | 0.71 | 0.792 | 0.448 | 0.413 | 0.618 | 0.635 | 0.306 | 0.524 | 0.461 |
| CC1(C)CCC(CN2CCN(c3ccc(C(=O)NS(=O)(=O)c4ccc(NCC5CCOCC5)c([N+](=O)[O-])c4)c(Oc4cnc5[nH]ccc5c4)c3)CC2)=C(c2ccc(Cl)cc2)C1 [Venetoclax] + C1CN(CCC1(C(=O)N[C@@H](CCO)C2=CC=C(C=C2)Cl)N)C3=NC=NC4=C3C=CN4 [Capivasertib] (first compound max 1 µM, 7x7, partner max 3 µM) | 0.398 | 0.556 | 0.761 | 0.681 | 0.282 | 0.273 | 0.156 | 0.959 | 0.202 | 0.36 | 0.354 | 0.751 | 0.533 | 0.174 | 0.287 | 0.437 | 0.263 | 0.558 | 0.277 | 0.317 |
| CC1(C)CCC(CN2CCN(c3ccc(C(=O)NS(=O)(=O)c4ccc(NCC5CCOCC5)c([N+](=O)[O-])c4)c(Oc4cnc5[nH]ccc5c4)c3)CC2)=C(c2ccc(Cl)cc2)C1 [Venetoclax] + C[C@@H]1COCCN1C2=NC(=NC(=C2)C3(CC3)[S@](=N)(=O)C)C4=C5C=CNC5=NC=C4 [AZD6738] (first compound max 1 µM, 7x7, partner max 10 µM) | 0.428 | 0.793 | 0.865 | 0.702 | 1 | 0.53 | 0.846 | 0.98 | 0.75 | 0.716 | 0.399 | 0.99 | 0.339 | 0.329 | 0.424 | 0.535 | 0.586 | 0.55 | 0.689 | 0.777 |
| C[C@@H](c1ccc2nccn2c1)n1nnc2ncc(-c3cnn(C)c3)nc21 [Savolitinib] + Cc1c2c(nn1C)CSCc1cc(n(C)n1)CSc1cc(c3ccccc3c1)OCCCc1c(C(=O)O)n(C)c3c-2c(Cl)ccc13 [AZD5991] (first compound max 1 µM, 7x7, partner max 1 µM) | 0.946 | 0.279 | 0.153 | 0.244 | 1 | 0.153 | 0.678 | 0.503 | 0.228 | 0.22 | 0.19 | 0.211 | 0.164 | 0.216 | 0.178 | 0.124 | 0.18 | 0.85 | 0.186 | 0.159 |
| CCN(CCO)CCCOc1ccc2c(Nc3cc(CC(=O)Nc4cccc(F)c4)[nH]n3)ncnc2c1 [AZD2811] + O=C(c1cc(Cc2n[nH]c(=O)c3ccccc23)ccc1F)N1CCN(C(=O)C2CC2)CC1 [Olaparib] (first compound max 1 µM, 7x7, partner max 10 µM) | 0.224 | 0.0609 | 0.398 | 0.458 | 0.688 | 0.181 | 0.254 | 0.835 | 0.271 | 0.58 | 0.178 | 0.426 | 0.332 | 0.182 | 0.284 | 0.405 | 0.219 | 0.152 | 0.288 | 0.338 |
| COc1cccc(OCCCN)c1-c1cc(Nc2cnc(C#N)cn2)n[nH]1 [Prexasertib] + CCc1c2c(nc3ccc(O)cc13)-c1cc3c(c(=O)n1C2)COC(=O)[C@]3(O)CC [SN-38] (first compound max 1 µM, 7x7, partner max 0.3 µM) | 0.748 | 0.942 | 0.867 | 0.916 | 1 | 0.829 | 0.835 | 1 | 0.953 | 0.796 | 0.431 | 1 | 0.423 | 0.791 | 0.643 | 0.982 | 0.871 | 0.929 | 0.98 | 0.94 |
| CN(C)CCCOc1ccc(-c2ccc3ncc4c(c3c2)n(C2CCOCC2)c(=O)n4C)cn1 [AZD0156] + C[C@@H]1COCCN1C2=NC(=NC(=C2)C3(CC3)[S@](=N)(=O)C)C4=C5C=CNC5=NC=C4 [AZD6738] (first compound max 1 µM, 7x7, partner max 10 µM) | 0.359 | 0.781 | 0.942 | 0.429 | 0.995 | 0.41 | 0.912 | 0.332 | 0.73 | 0.789 | 0.425 | 0.868 | 0.414 | 0.293 | 0.331 | 0.565 | 0.856 | 0.435 | 0.772 | 0.919 |
| COc1cccc(OCCCN)c1-c1cc(Nc2cnc(C#N)cn2)n[nH]1 [Prexasertib] + C[C@@H]1COCCN1C2=NC(=NC(=C2)C3(CC3)[S@](=N)(=O)C)C4=C5C=CNC5=NC=C4 [AZD6738] (first compound max 1 µM, 7x7, partner max 10 µM) | 0.718 | 0.896 | 0.903 | 0.662 | 1 | 0.46 | 0.929 | 0.712 | 0.842 | 0.864 | 0.483 | 0.951 | 0.308 | 0.519 | 0.463 | 0.802 | 0.894 | 0.878 | 0.839 | 0.943 |
| CC1(C)CCC(CN2CCN(c3ccc(C(=O)NS(=O)(=O)c4ccc(NCC5CCOCC5)c([N+](=O)[O-])c4)c(Oc4cnc5[nH]ccc5c4)c3)CC2)=C(c2ccc(Cl)cc2)C1 [Venetoclax] + Cn1cnc2c(F)c(Nc3ccc(Br)cc3Cl)c(C(=O)NOCCO)cc21 [Selumetinib] (first compound max 1 µM, 7x7, partner max 3 µM) | 0.143 | 0.879 | 0.536 | 0.436 | 0.216 | 0.398 | 0.369 | 0.937 | 0.345 | 0.611 | 0.169 | 0.395 | 0.314 | 0.171 | 0.575 | 0.185 | 0.169 | 0.186 | 0.245 | 0.646 |
| Cc1c2c(nn1C)CSCc1cc(n(C)n1)CSc1cc(c3ccccc3c1)OCCCc1c(C(=O)O)n(C)c3c-2c(Cl)ccc13 [AZD5991] + C[C@@H](Nc1cc(F)cc(F)c1)c1cc(C(=O)N(C)C)cc2c(=O)cc(N3CCOCC3)oc12 [AZD8186] (first compound max 1 µM, 7x7, partner max 3 µM) | 0.935 | 0.325 | 0.244 | 0.394 | 1 | 0.311 | 0.899 | 0.721 | 0.381 | 0.476 | 0.471 | 0.929 | 0.445 | 0.196 | 0.386 | 0.648 | 0.238 | 0.974 | 0.421 | 0.265 |
| CN(C)CCCOc1ccc(-c2ccc3ncc4c(c3c2)n(C2CCOCC2)c(=O)n4C)cn1 [AZD0156] + C=CCn1c(=O)c2cnc(Nc3ccc(N4CCN(C)CC4)cc3)nc2n1-c1cccc(C(C)(C)O)n1 [AZD1775] (first compound max 1 µM, partner max 1 µM) | 0.553 | 0.706 | 0.675 | 0.271 | 0.95 | 0.361 | 0.903 | 0.783 | 0.555 | 0.317 | 0.326 | 0.926 | 0.367 | 0.191 | 0.314 | 0.525 | 0.734 | 0.181 | 0.642 | 0.416 |
| CN(CCO)CC[C@H](CSc1ccccc1)Nc1ccc(S(=O)(=O)NC(=O)c2ccc(N3CCC([C@@H](O)c4ccccc4-c4ccc(Cl)cc4)CC3)cc2)cc1S(=O)(=O)C(F)(F)F [AZD4320] + Cn1cnc2c(F)c(Nc3ccc(Br)cc3Cl)c(C(=O)NOCCO)cc21 [Selumetinib] (first compound max 1 µM, 7x7, partner max 3 µM) | 0.208 | 0.885 | 0.628 | 0.781 | 0.861 | 0.479 | 0.491 | 1 | 0.472 | 0.671 | 0.347 | 0.99 | 0.544 | 0.242 | 0.697 | 0.441 | 0.516 | 0.617 | 0.634 | 0.955 |
